Measurements from patent publication US20190202836A1, “SELECTIVE DUAL INHIBITORS OF PI3 DELTA AND GAMMA PROTEIN KINASES” (Rhizen Pharmaceuticals SA, priority 2014, published 2019).
Where two headings read alike, the source gives them in different places.

Legend:
[1] = Metabolic stability in mouse liver microsomes; format: in vitro ADME; conditions: 1 μM test item, 60 minutes, 37° C., NADPH
Description: (§1) Metabolic stability studies were conducted on Compounds A, A1, and A2 as well as Example 128 of WO 2012/151525 using mouse, rat, dog, monkey, and human liver microsomes. The protocol for the studies with mouse, rat, and human liver microsomes (all from BD Gentest, USA) is provided below. 0.4 mg protein was preincubated with 2 mM NADPH (cofactor) in phosphate buffer (pH-7.4) for 15 minutes at 37° C. and then added with 1 μM test item and incubated further for 60 minutes in triplicate. The reaction mixture was terminated with methanol containing an internal standard and centrifuged further to analyze the test item remaining in the supernatant by LC-MS/MS. The percent parent compound remaining was calculated in comparison with similar samples terminated at 0 minutes.

[2] = Metabolic stability in rat liver microsomes; format: in vitro ADME; conditions: 1 μM test item, 60 minutes, 37° C., NADPH
Description: as §1

[3] = Metabolic stability in dog liver microsomes; format: in vitro ADME
[4] = Metabolic stability in monkey liver microsomes; format: in vitro ADME
Description: as §1

[5] = Metabolic stability in human liver microsomes; format: in vitro ADME; conditions: 1 μM test item, 60 minutes, 37° C., NADPH
Description: as §1

[6] = Oral pharmacokinetics in rats; format: in vivo; conditions: Rat, 10 mg/kg
Description: The oral bioavailability of Compound A1 (free base) was evaluated in rats and mice. The protocol for the pharmacokinetics studies in rat is provided below.
All animals were fasted overnight (12 hours) before dosing and continued till 4.0 hours after administration of test item. Test item formulations were prepared in 1% Tween 80 and 99% media (0.5% Methyl cellulose, 4000cPs, pH 2.2). The blood samples (150 μL from each animal) were collected from the orbital sinus, and placed into a micro centrifuge tube containing disodium EDTA as an anticoagulant. Blood samples were centrifuged immediately with a speed of 1000 g for 10 min at 4° C. and separated plasma samples were frozen at below −80° C. and stored until analysis. The concentrations of test item in all formulations were analyzed by HPLC. The plasma concentrations of test item in all samples were analyzed by LC-MS/MS. Pharmacokinetic parameters (Cmax, AUC0-t, Tmax, and t^1/2) were estimated by using WinNonlin software. Results are provided in Table 3 for Compound A, A1, and Example 128 of WO 2012/151525 in rats and Compound A1 in mice.

[7] = target: PI3Kδ (Homo sapiens, UniProt O00329); assay: Assay 1: Fluorescent (HTRF) determination of PI3 kinase enzyme activity, PI3Kδ; format: biochemical
Sequence of PI3Kδ (O00329 whole entry, canonical isoform): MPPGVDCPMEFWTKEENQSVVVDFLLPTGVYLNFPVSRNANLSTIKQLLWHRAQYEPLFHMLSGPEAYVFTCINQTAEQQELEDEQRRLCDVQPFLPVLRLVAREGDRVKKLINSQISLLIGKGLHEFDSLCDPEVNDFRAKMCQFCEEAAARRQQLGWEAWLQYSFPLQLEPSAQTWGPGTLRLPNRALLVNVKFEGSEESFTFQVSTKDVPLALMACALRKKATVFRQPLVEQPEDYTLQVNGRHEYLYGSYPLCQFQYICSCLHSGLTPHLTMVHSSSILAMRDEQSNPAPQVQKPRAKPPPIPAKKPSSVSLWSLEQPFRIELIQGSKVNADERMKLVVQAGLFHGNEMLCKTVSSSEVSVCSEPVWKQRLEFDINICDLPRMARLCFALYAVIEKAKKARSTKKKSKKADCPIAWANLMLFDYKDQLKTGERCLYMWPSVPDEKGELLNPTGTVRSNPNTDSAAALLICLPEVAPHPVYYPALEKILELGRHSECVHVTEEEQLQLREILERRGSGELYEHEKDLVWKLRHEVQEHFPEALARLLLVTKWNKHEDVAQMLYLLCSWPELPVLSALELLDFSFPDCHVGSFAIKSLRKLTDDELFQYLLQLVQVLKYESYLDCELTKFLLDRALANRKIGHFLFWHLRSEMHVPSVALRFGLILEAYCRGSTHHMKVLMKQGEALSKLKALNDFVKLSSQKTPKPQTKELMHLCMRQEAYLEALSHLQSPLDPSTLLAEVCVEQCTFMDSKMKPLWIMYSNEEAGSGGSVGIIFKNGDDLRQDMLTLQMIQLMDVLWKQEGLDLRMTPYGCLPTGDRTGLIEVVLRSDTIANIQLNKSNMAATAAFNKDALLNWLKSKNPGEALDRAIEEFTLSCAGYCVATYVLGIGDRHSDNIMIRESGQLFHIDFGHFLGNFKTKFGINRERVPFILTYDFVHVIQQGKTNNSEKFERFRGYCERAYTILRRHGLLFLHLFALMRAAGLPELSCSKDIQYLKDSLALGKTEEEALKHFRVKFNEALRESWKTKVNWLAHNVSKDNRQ
Sequence of PI3Kδ (P27986 whole entry partner, canonical isoform): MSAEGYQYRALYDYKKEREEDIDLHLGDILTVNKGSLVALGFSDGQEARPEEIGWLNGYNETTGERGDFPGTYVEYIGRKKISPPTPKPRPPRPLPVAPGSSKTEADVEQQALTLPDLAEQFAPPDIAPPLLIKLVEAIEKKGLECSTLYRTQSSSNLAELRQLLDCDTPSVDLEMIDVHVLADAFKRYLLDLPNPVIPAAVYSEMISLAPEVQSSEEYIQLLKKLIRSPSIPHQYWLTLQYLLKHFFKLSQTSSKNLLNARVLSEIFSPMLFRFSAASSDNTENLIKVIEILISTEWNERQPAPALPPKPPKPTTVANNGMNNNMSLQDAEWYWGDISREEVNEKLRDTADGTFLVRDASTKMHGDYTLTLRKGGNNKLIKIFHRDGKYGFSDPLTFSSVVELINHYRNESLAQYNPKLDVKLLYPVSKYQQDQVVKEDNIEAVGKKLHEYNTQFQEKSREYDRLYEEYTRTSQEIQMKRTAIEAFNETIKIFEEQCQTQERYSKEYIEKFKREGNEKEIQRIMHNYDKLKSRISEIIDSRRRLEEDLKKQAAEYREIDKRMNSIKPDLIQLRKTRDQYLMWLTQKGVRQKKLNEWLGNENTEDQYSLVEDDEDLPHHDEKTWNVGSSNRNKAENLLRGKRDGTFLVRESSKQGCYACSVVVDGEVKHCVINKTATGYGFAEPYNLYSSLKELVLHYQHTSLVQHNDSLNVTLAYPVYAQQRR
Text: (§2) Phosphoinositide 3 kinases (PI3K) belong to a class of lipid kinases that play a critical role in the regulation of several key cellular processes. The PI3K are capable of phosphorylating the 3-hydroxy position of phosphoinositols thereby generating second messengers involved in downstream signaling events. The homogenous time resolved fluorescence (HTRF) assay allows detection of 3,4,5-triphosphate (PIPS) formed as a result of phosphorylation of phosphotidylinositol 4,5-biphosphate (PIP2) by PI3K isoforms such as α, β, γ or δ.
(§3) PI3K isoform activity for α, β, γ or δ was determined using a PI3K human HTRF™ Assay Kit (Millipore, Billerica, Mass.) with modifications. All incubations were carried out at room temperature. 0.5 μl of 40× inhibitor (in 100% DMSO) or 100% DMSO were added to each well of a 384-well white plate (Greiner Bio-One, Monroe, N.C.) containing 14.5 μl 1× reaction buffer/PIP2 (10 mM MgCl2, 5 mM DTT, 1.38 μM PIP2) mix with or without enzyme, followed by 5 μl/well of 400 μM ATP and incubated for an additional 30 minutes. The reaction was terminated by adding 5 μl/well stop solution (Millipore, Billerica, Mass.). 5 μl of detection mix (Millipore, Billerica, Mass.) was then added to each well and incubated for 6-18 hours in the dark. HRTF ratio was measured on a microplate reader (BMG Labtech., Germany) at an excitation wavelength of 337 nm and emission wavelengths of 665 and 615 nm with an integration time of 400 msec counting delay of 50 msec.

[8] = target: PI3Kγ (Homo sapiens, UniProt P48736); assay: Assay 1: Fluorescent (HTRF) determination of PI3 kinase enzyme activity, PI3Kγ; format: biochemical
Sequence of PI3Kγ (P48736 whole entry): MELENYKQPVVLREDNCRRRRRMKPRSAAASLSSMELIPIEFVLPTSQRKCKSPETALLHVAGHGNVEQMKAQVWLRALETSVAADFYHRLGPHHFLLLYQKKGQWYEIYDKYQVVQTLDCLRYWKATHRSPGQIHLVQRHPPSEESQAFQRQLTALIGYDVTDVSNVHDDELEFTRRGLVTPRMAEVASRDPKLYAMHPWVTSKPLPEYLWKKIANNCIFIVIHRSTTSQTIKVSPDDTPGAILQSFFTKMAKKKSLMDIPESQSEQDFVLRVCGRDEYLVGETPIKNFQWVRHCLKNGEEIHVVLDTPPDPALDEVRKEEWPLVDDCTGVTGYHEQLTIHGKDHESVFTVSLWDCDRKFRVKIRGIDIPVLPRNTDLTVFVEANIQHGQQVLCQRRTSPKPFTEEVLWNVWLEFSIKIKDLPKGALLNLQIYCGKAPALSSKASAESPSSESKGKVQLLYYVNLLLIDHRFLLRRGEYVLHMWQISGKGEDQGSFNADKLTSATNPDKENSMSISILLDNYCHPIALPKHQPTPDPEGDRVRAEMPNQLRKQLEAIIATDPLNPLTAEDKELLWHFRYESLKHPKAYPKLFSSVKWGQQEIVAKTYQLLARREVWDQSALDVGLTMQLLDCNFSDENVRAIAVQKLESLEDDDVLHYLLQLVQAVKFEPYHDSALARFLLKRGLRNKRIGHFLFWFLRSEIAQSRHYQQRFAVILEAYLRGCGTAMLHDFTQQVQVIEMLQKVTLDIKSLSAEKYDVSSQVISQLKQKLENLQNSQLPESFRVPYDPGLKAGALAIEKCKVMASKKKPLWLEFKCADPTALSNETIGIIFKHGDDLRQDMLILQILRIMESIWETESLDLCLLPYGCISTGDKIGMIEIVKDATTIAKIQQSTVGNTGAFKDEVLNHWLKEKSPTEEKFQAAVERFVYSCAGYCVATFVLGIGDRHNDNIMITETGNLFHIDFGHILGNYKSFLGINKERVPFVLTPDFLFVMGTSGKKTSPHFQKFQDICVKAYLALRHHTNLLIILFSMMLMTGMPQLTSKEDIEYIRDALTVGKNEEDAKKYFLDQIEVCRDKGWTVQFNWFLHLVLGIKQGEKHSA
Text: as §2, §3

[9] = reported at 55th ASH Annual Meeting, 2013; cited from earlier work

SMILES | Metabolic stability in liver microsomes (percent parent compound remaining), Mouse [1] | Metabolic stability in liver microsomes (percent parent compound remaining), Rat [2] | Metabolic stability in liver microsomes (percent parent compound remaining), Dog [3] | Metabolic stability in liver microsomes (percent parent compound remaining), Monkey [4] | Metabolic stability in liver microsomes (percent parent compound remaining), Human [5] | fold increase in AUC0-t as compared to Example 128 of WO 2012/151525 [6] | fold increase in Cmax as compared to Example 128 of WO 2012/151525 [6] | fold increase in t1/2 as compared to Example 128 of WO 2012/151525 [6] | AUC(0-t) ([6]; plasma) | Cmax ([6]; plasma) | Tmax ([6]; plasma) | half-life ([6]; plasma) | IC50 [7] | IC50 ([8]; read-out: IC50 (nM) PI3Kγ) | IC50 ([8]; read-out: IC50 Pi3Kγ (cell prints μM)) | maximum tolerated dose (MTD) [9]
COc1ccc(-c2nn(C(C)c3oc4cccc(F)c4c(=O)c3-c3cccc(F)c3)c3ncnc(N)c23)cc1NS(C)(=O)=O (racemic) [Compound A, (RS)—N-(5-(4-amino-1-(1-(5-fluoro-3-(3-fluorophenyl)-4-oxo-4H-chromen-2-yl)ethyl)-1H-pyrazolo[3,4-d]pyrimidin-3-yl)-2-methoxyphenyl)methanesulfonamide] | 96% | 91% | 64.3% | 42.3% | 69.7% | ~4 fold | ~1.5 fold | ~2.8 fold | 7.95 µM·h | 1020 nM | 2.67 h | 271 min | 103 nM | 82.9 nM | – | –
COc1ccc(-c2nn([C@H](C)c3oc4cccc(F)c4c(=O)c3-c3cccc(F)c3)c3ncnc(N)c23)cc1NS(C)(=O)=O [Compound A2, (R)—N-(5-(4-amino-1-(1-(5-fluoro-3-(3-fluorophenyl)-4-oxo-4H-chromen-2-yl)ethyl)-1H-pyrazolo[3,4-d]pyrimidin-3-yl)-2-methoxyphenyl)methanesulfonamide] | 68.9% | 79.5% | 52.3% | 1.9% | 60.2% | – | – | – | – | – | – | – | 92.9 nM | > 10000 nM | > 10000 nM | –
C[C@H](Nc1ncnc2[nH]cnc12)c1cc2cccc(Cl)c2c(=O)n1-c1ccccc1 [IPI-45] | – | – | – | – | – | – | – | – | – | – | – | – | – | – | – | 75 mg BID
